Data taken from PubChem BioAssay AID1259407 (Chemical Carcinogenesis Research Information System (CCRIS), 2018).
Activity calls are given as the source filed them. No rule for the calls is given here.

Test system: CCRIS mutagenicity, Ames/micronucleus/aberration tests
Assay: CCRIS mutagenicity studies
[1] = Test System: AMES SALMONELLA TYPHIMURIUM, Strain/Indicator: TA98, Metabolic Activation: NONE, Method: STANDARD PLATE
[2] = Test System: AMES SALMONELLA TYPHIMURIUM, Strain/Indicator: TA100, Metabolic Activation: NONE, Method: STANDARD PLATE

CNC(=O)Oc1cccc2c1OC(C)(C)O2
mutagenic call (End Point: IN VIVO MICRONUCLEUS, Test System: BONE MARROW POLYCHROMATIC ERYTHROCYTES, Species: RABBIT, Strain/Sex: HYBRID HYLA/MALE, FEMALE, Route: ORAL (GAVAGE)): inactive; negative | mutagenic call (End Point: In vitro Chromosomal aberrations, Test System: Human lymphocytes, Metabolic Activation: Activation by unspecified source): active; positive | mutagenic call (End Point: In vitro Chromosomal aberrations, Test System: Human lymphocytes, Metabolic Activation: None): inactive; negative

CC(C)(C)C(=O)C1C(=O)c2ccccc2C1=O
mutagenic call (Test System: AMES SALMONELLA TYPHIMURIUM, Strain/Indicator: TA98, Metabolic Activation: HAMSTER, LIVER, S-9, AROCLOR 1254 (10%), Method: PREINCUBATION): inactive; negative | mutagenic call (Test System: AMES SALMONELLA TYPHIMURIUM, Strain/Indicator: TA98, Metabolic Activation: NONE, Method: PREINCUBATION): inactive; negative | mutagenic call (Test System: AMES SALMONELLA TYPHIMURIUM, Strain/Indicator: TA98, Metabolic Activation: RAT, LIVER, S-9, AROCLOR 1254 (10%), Method: PREINCUBATION): inactive; negative | mutagenic call (Test System: AMES SALMONELLA TYPHIMURIUM, Strain/Indicator: TA100, Metabolic Activation: HAMSTER, LIVER, S-9, AROCLOR 1254 (10%), Method: PREINCUBATION): inactive; negative | mutagenic call (Test System: AMES SALMONELLA TYPHIMURIUM, Strain/Indicator: TA100, Metabolic Activation: NONE, Method: PREINCUBATION): inactive; negative | mutagenic call (Test System: AMES SALMONELLA TYPHIMURIUM, Strain/Indicator: TA100, Metabolic Activation: RAT, LIVER, S-9, AROCLOR 1254 (10%), Method: PREINCUBATION): inactive; negative | mutagenic call (Test System: AMES SALMONELLA TYPHIMURIUM, Strain/Indicator: TA1535, Metabolic Activation: HAMSTER, LIVER, S-9, AROCLOR 1254 (10%), Method: PREINCUBATION): inactive; negative | mutagenic call (Test System: AMES SALMONELLA TYPHIMURIUM, Strain/Indicator: TA1535, Metabolic Activation: NONE, Method: PREINCUBATION): inactive; negative | mutagenic call (Test System: AMES SALMONELLA TYPHIMURIUM, Strain/Indicator: TA1535, Metabolic Activation: RAT, LIVER, S-9, AROCLOR 1254 (10%), Method: PREINCUBATION): inactive; negative | mutagenic call (Test System: AMES SALMONELLA TYPHIMURIUM, Strain/Indicator: TA1537, Metabolic Activation: HAMSTER, LIVER, S-9, AROCLOR 1254 (10%), Method: PREINCUBATION): inactive; negative | mutagenic call (Test System: AMES SALMONELLA TYPHIMURIUM, Strain/Indicator: TA1537, Metabolic Activation: NONE, Method: PREINCUBATION): inactive; negative | mutagenic call (Test System: AMES SALMONELLA TYPHIMURIUM, Strain/Indicator: TA1537, Metabolic Activation: RAT, LIVER, S-9, AROCLOR 1254 (10%), Method: PREINCUBATION): inactive; negative

Oc1ccc2ccc3[nH]c4ccc5ccccc5c4c3c2c1
mutagenic call [1]: active; positive | mutagenic call (Test System: AMES SALMONELLA TYPHIMURIUM, Strain/Indicator: TA98, Metabolic Activation: RAT, LIVER, S-9, 3-METHYLCHOLANTHRENE, Method: STANDARD PLATE): active; positive | mutagenic call [2]: active; positive | mutagenic call (Test System: AMES SALMONELLA TYPHIMURIUM, Strain/Indicator: TA100, Metabolic Activation: RAT, LIVER, S-9, 3-METHYLCHOLANTHRENE, Method: STANDARD PLATE): active; positive | mutagenic call (Test System: AMES SALMONELLA TYPHIMURIUM, Strain/Indicator: TM677, Metabolic Activation: NONE, Method: PREINCUBATION): inactive; negative | mutagenic call (Test System: AMES SALMONELLA TYPHIMURIUM, Strain/Indicator: TM677, Metabolic Activation: RAT, LIVER, S-9, 3-METHYLCHOLANTHRENE (1%), Method: PREINCUBATION): active; positive | mutagenic call (Test System: AMES SALMONELLA TYPHIMURIUM, Strain/Indicator: TM677, Metabolic Activation: RAT, LIVER, S-9, 3-METHYLCHOLANTHRENE (10%), Method: PREINCUBATION): active; positive | mutagenic call (Test System: AMES SALMONELLA TYPHIMURIUM, Strain/Indicator: TM677, Metabolic Activation: RAT, LIVER, S-9, AROCLOR 1254 (10%), Method: PREINCUBATION): active; positive

COc1ccc(N(CCCl)CCCl)c2oc([N+](=O)[O-])cc12
mutagenic call (Test System: AMES SALMONELLA TYPHIMURIUM, Strain/Indicator: TA100(NR), Metabolic Activation: NONE, Method: STANDARD PLATE): active; positive | mutagenic call (Test System: AMES SALMONELLA TYPHIMURIUM, Strain/Indicator: TA100(NR), Metabolic Activation: RAT, LIVER, S-9, AROCLOR 1254, Method: STANDARD PLATE): active; positive | mutagenic call [2]: active; positive | mutagenic call (Test System: AMES SALMONELLA TYPHIMURIUM, Strain/Indicator: TA100, Metabolic Activation: RAT, LIVER, S-9, AROCLOR 1254, Method: STANDARD PLATE): active; positive

CC(=O)Nc1ccc(S(=O)(=O)c2ccc(NC(C)=O)cc2)cc1
mutagenic call [1]: inactive; negative | mutagenic call (Test System: AMES SALMONELLA TYPHIMURIUM, Strain/Indicator: TA98, Metabolic Activation: RAT, LIVER, S-9, PCB, Method: STANDARD PLATE): inactive; negative | mutagenic call [2]: inactive; negative | mutagenic call (Test System: AMES SALMONELLA TYPHIMURIUM, Strain/Indicator: TA100, Metabolic Activation: RAT, LIVER, S-9, PCB, Method: STANDARD PLATE): inactive; negative
